Patent publication US20240277746A1, “OPHTHALMIC NANO-DISPERSION COMPOSITION, A METHOD OF PREPARATION THEREOF, AND FORMULATION FOR CORNEAL EPITHELIAL WOUND HEALING” (THE UNIVERSITY OF JORDAN, priority 2021, published 2024)

Key:
[1] = tested on: rabbit corneas subjected to epithelial debridement; assay: Corneal epithelial healing in rabbit eyes; format: in vivo
Protocol: Rabbits were used to evaluate the ability of formulations to accelerate corneal epithelial wound healing in-vivo. Xylazine was used to induce analgesia in the rabbits with intramuscular injections of about 6 mg/kg. Proparacaine 0.5% weight/volume eye drops were also used as supplemental analgesia.
The eyes were kept open during the depredation using a speculum.
Using cotton buds, about 10% of alcohol was applied to the central regions of rabbit corneas for about 20 seconds. Then epithelia within an 8 mm diameter circle in were mechanically scraped using a blunt spatula. After that, eyes were washed several times using normal saline to remove scraped epithelial cells and residual alcohol that can induce corneal irritations.
The rabbits were divided into five treatment groups. Each group contained four animals. Right eyes were selected to receive normal saline while left eyes were assigned to receive the treatment.
The treatment was either about 200 μl (4 drops) of 5% ascorbic acid solution in 0.2 N sodium phosphate buffer pH 7.4, blank oily eye drops, AA as oily eye drops and AA-2G as oily eye drops.
The treatments were administered topically to the wounded eyes, along with topical ofloxacin antibiotic drops (Oflox, Allergan, Inc.), immediately following surgery and 6, 12, 24, 30, 36, 48, 54, 60 and 72-hour post-surgery.
Throughout the healing process, rabbits were closely monitored for evidence of distress or infection, and epithelial wound closure was examined at each dosing time point by applying about 50 μL of 0.25% topical fluorescein eye drops to the injured cornea and imaging the wound under cobalt blue light.
The area of each epithelial defect was measured using “ImageJ”, an image analysis software. Percent healing (“H %”) was calculated as a percentage of the initial wound area. According to the following equation: […]
Wherein Ai indicates the wound area at a given time point and A0 indicates the initial wound area.

[2] = Transcorneal permeation study, Franz-type diffusion cells; format: in vitro ADME, sheep; details: AA-2G, mean ± SD, n = 3
Protocol: (§1) In vitro permeation and accumulation studies were performed on freshly excised sheep cornea obtained from a local slaughterhouse within an hour after the slaughter of the animals.
After the preparation of excised cornea, it was directly fixed between the donor and receptor compartments of Franz-type diffusion cells in such a way that its epithelial surface was facing the donor compartment and the endothelial surface was facing the receptor compartment.
The diameter of the diffusion area of the diffusion cells was 11 mm, producing an effective diffusion area of about 0.95 cm^2. The receptor compartment was filled with about 12 ml of normal saline solution stirred using teflon-coated magnetic stirring bars and maintained at a temperature of about 37° C. by circulating warm water through the water jacket around the receptor compartment. Special care was taken to expel air bubbles from the receptor fluid.
The permeation study was carried out by placing about 1 ml of either the prepared AA-2G loaded S/O nano-dispersion, AA-2G solution or normal saline on top of the cornea in the donor compartment.
An aliquot (about 0.3 ml) of the receptor fluid was withdrawn at about 0.5, 1, 1.5, 2, 3, 4, and 6 hours after beginning the experiment and replaced by an equal volume of fresh receptor solution. The receptor fluid content of AA-2G was determined quantitatively using the High-performance liquid chromatography (“HPLC”) method.

[3] = Corneal accumulation study (AA-2G entrapped within the corneal tissue after the permeation study); format: in vitro ADME, sheep; details: Qr6 hr; AA-2G in corneal tissue; mean ± SD, n = 3
Protocol: as §1
To quantify the amount of AA-2G entrapped within the corneal tissue after finishing the in vitro permeation study, the diffusion cells were dismantled, the corneas were quickly washed with normal saline to remove the surface-attached AA-2G, then the diffusional areas were cut out and digested using about 0.5 ml of 0.5 M NaOH for about 12 hours at about 37° C. in a shaker incubator to obtain a solution. After that, about 0.5 ml of ethanol and about 1 ml of acetonitrile were added to this solution to precipitate the dissolved proteins. The samples were then centrifuged at about 8000 rpm for about 10 minutes. The supernatants were taken and diluted with the mobile phase for HPLC analysis.

O=C1O[C@H]([C@@H](O)CO)C(O)=C1O [AA solution, ascorbic acid]
relative healing rate (normalized to normal saline) ([1]; 6-hour): 3.28 | relative healing rate (normalized to normal saline) ([1]; 12-hours): 1.39 | % healing ([1]; after 6 hours, topical, rabbit, n=4): 22.9% | wound-healing rate enhancement vs control (normal saline) ([1]; first 6 hours): up to 3.28 folds | effect on corneal epithelial healing ([1]; rabbit eyes, topical, vs normal saline): significantly increased

O=C1O[C@H]([C@@H](O)CO)C(O)=C1O[C@H]1O[C@H](CO)[C@@H](O)[C@H](O)[C@H]1O [AA-2G solution, Ascorbyl glucoside]
Amount permeated per unit area Qt ([2]; Time 0.5 hr): 0.00 μg/cm2 | Amount permeated per unit area Qt ([2]; Time 1 hr): 0.00 μg/cm2 | Amount permeated per unit area Qt ([2]; Time 1.5 hr): 0.00 μg/cm2 | Amount permeated per unit area Qt ([2]; Time 2 hr): 0.00 μg/cm2 | Amount permeated per unit area Qt ([2]; Time 3 hr): 4.56 ± 3.29 μg/cm2 | Amount permeated per unit area Qt ([2]; Time 4 hr): 11.21 ± 3.67 μg/cm2 | Amount permeated per unit area Qt ([2]; Time 6 hr): 41.02 ± 0.21 μg/cm2 | Amount accumulated per unit area Qr (accumulation) [3]: 30.91 ± 1.04 μg/cm2
